According to publication PMC12175220, “Eco-Friendly Solvents for Bioactives: Solubilization of Hydroxycinnamic Acids in Glycerol-Derived Ethers” (ACS Sustainable Chemistry & Engineering, 2025):
≈ marks a conversion by molar mass, not a printed value.

Columns and labels:
[1] = Solubility of hydroxycinnamic acids in pure solvents (orbital shaker 72 h, HPLC); assay type: physicochemical; conditions: for Increase of solubility in EGMME with respect to 101: EGMME vs 101; for solubility at 72 h: organic solvent or mixture, thermodynamic from solid
Protocol: (§1) Amber vials were used to protect the samples from light. To ensure reliability, all of the experiments were performed in triplicate. The samples were shaken in a biological orbital shaker at 100 rpm for 72 h at 25 °C.
Before the samples were measured, they must be sonicated to avoid the formation of dimers and ensure the uniformity of the peaks.
(§2) The column used for the quantification was a C18 Phenomenex Luna ([…] × 5 μm).
Calibration curves were generated using solutions varying in the concentrations of the three studied acids within the HPLC detection range (0–0.006 mg). These solutions were sonicated to ensure uniformity of the peaks and then injected into the HPLC. The linearity of the curves was evaluated by linear regression analysis. Details of the calibrations are gathered in the Supporting Information (Figures S27–S29).
Following this period, the solution was checked for saturation and filtered. The filtered solution was then immediately diluted for hydroxycinnamic acid quantification by HPLC.

[2] = physchem; conditions: for solubility at 72 h: 25 °C, thermodynamic from solid, Solubility (mg/mL)
Protocol: as §1, §2

[3] = comparison solvents; cited from earlier work
[4] = pure 1,3-propylene glycol (PG), 25 °C, solvent PG (1,3-propylene glycol), 298 K, read-out: Solubility
[5] = pure ethylene glycol (EG), 25 °C, solvent EG (ethylene glycol), 298 K, read-out: Solubility
[6] = pure solvent 3F00, 25 °C, solvent 3F00, Tables S-1 to S-3, read-out: Solubility
[7] = pure solvent 3i00, 25 °C, solvent 3i00, Tables S-1 to S-3, read-out: Solubility
[8] = pure solvent 3i03i, 25 °C, solvent 3i03i, 298 K, read-out: Solubility
[9] = pure solvent 100, 25 °C, solvent 100, Tables S-1 to S-3, read-out: Solubility
[10] = pure solvent 101, 25 °C, solvent 101, Tables S-1 to S-3, read-out: Solubility
[11] = pure solvent 111, 25 °C, solvent 111, Tables S-1 to S-3, read-out: Solubility
[12] = pure solvent 111 triether, 25 °C, solvent 111 triether, 298 K, read-out: Solubility
[13] = pure solvent 200, 25 °C, solvent 200, Tables S-1 to S-3, read-out: Solubility
[14] = pure solvent 202, 25 °C, solvent 202, 298 K, read-out: Solubility
[15] = pure solvent 202, 25 °C, solvent 202, Tables S-1 to S-3, read-out: Solubility
[16] = pure solvent 300, 25 °C, solvent 300, Tables S-1 to S-3, read-out: Solubility
[17] = pure solvent 400, 25 °C, solvent 400, Tables S-1 to S-3, read-out: Solubility
[18] = pure solvent 400, 25 °C, solvent 400, Tables S-13 to S-15, read-out: Experimental solubility
[19] = pure solvent 404, 25 °C, solvent 404, Tables S-1 to S-3, read-out: Solubility
[20] = pure solvent EG, 25 °C, solvent EG, Tables S-1 to S-3, read-out: Solubility
[21] = pure solvent EGDME, 25 °C, solvent EGDME, Tables S-1 to S-3, read-out: Solubility
[22] = pure solvent EGMME, 25 °C, solvent EGMME, Tables S-1 to S-3, read-out: Solubility
[23] = pure solvent PG, 25 °C, solvent PG, Tables S-1 to S-3, read-out: Solubility

| Increase of solubility in EGMME with respect to 101 [1] | solubility at 72 h [1, 4] | solubility at 72 h [1, 5] | solubility at 72 h [1, 6] | solubility at 72 h [1, 7] | solubility at 72 h [1, 8] | solubility at 72 h [1, 9] | solubility at 72 h [1, 10] | solubility at 72 h [1, 11] | solubility at 72 h [1, 12] | solubility at 72 h [1, 13] | solubility at 72 h [1, 14] | solubility at 72 h [1, 15] | solubility at 72 h [1, 16] | solubility at 72 h [1, 17] | solubility at 72 h [1, 18] | solubility at 72 h [1, 19] | solubility at 72 h [1, 20] | solubility at 72 h [1, 21] | solubility at 72 h [1, 22] | SMILES | other results |
| --- | --- | --- | --- | --- | --- | --- | --- | --- | --- | --- | --- | --- | --- | --- | --- | --- | --- | --- | --- | --- | --- |
| 21% | 36.5 mg/mL (≈ 203 mM) | 55.8 mg/mL (≈ 310 mM) | 5.5 mg/mL (≈ 30.5 mM) | 45.8 mg/mL (≈ 254 mM) | 25.2 mg/mL (≈ 140 mM) | 75.7 mg/mL (≈ 420 mM) | 81.1 mg/mL (≈ 450 mM) | 32.5 mg/mL (≈ 180 mM) | 32.5 mg/mL (≈ 180 mM) | 61.9 mg/mL (≈ 344 mM) | 34 mg/mL (≈ 189 mM) | 12 mg/mL (≈ 66.6 mM) | 44.5 mg/mL (≈ 247 mM) | 33.5 mg/mL (≈ 186 mM) | 33.4 mg/mL (≈ 185 mM) | 11.1 mg/mL (≈ 61.6 mM) | 42 mg/mL (≈ 233 mM) | 32.5 mg/mL (≈ 180 mM) | 98.9 mg/mL (≈ 549 mM) | O=C(O)/C=C/c1ccc(O)c(O)c1 [Caffeic acid] | solubility at 72 h ([1]; pure ethylene glycol dimethyl ether (EGDME), 25 °C, solvent EGDME (ethylene glycol dimethyl ether), 298 K, read-out: Solubility): 32.5 mg/mL (≈ 180 mM); solubility at 72 h ([1]; pure solvent 3i03i, 25 °C, solvent 3i03i, Tables S-1 to S-3, read-out: Solubility): 25.1 mg/mL (≈ 139 mM); solubility at 72 h ([1]; pure solvent 111, 25 °C, solvent 111, Tables S-13 to S-15, read-out: Experimental solubility): 32.5 mg/mL (≈ 180 mM); solubility at 72 h ([1]; pure solvent 303, 25 °C, solvent 303, Tables S-1 to S-3, read-out: Solubility): 17.2 mg/mL (≈ 95.5 mM); solubility at 72 h [1, 23]: 27.4 mg/mL (≈ 152 mM); solubility at 72 h [2]: 85 mg/mL (≈ 472 mM); solubility at 72 h ([2]; water): 0.8 mg/mL (≈ 4.44 mM); Increase in the solubility compared to pure 100 ([2]; 72 h): 20%; Increase of solubility in the water/101 mixture compared to the solubility in water ([2]; 72 h): 140 fold |
| – | – | – | – | – | – | – | – | – | – | – | – | – | – | – | – | – | – | – | – | OCC(O)CO [glycerol] | Viscosity [3]: 1200 cP |
| 45% | 91.3 mg/mL (≈ 556 mM) | 103 mg/mL (≈ 627 mM) | 17.2 mg/mL (≈ 105 mM) | 112 mg/mL (≈ 685 mM) | 85.7 mg/mL (≈ 522 mM) | 141 mg/mL (≈ 861 mM) | 176 mg/mL (≈ 1070 mM) | 110 mg/mL (≈ 668 mM) | 109 mg/mL (≈ 664 mM) | 137 mg/mL (≈ 832 mM) | 122 mg/mL (≈ 743 mM) | 120 mg/mL (≈ 731 mM) | 113 mg/mL (≈ 687 mM) | 95.1 mg/mL (≈ 579 mM) | 93.1 mg/mL (≈ 567 mM) | 49.3 mg/mL (≈ 300 mM) | 103 mg/mL (≈ 627 mM) | 161 mg/mL (≈ 980 mM) | 256 mg/mL (≈ 1560 mM) | O=C(O)/C=C/c1ccc(O)cc1 [Coumaric acid, coumaric acid] | solubility at 72 h ([1]; pure solvent 3F00, 25 °C, solvent 3F00, 298 K, read-out: Solubility): 19.6 mg/mL (≈ 119 mM); solubility at 72 h ([1]; pure solvent 3F03F, 25 °C, solvent 3F03F, 298 K, read-out: Solubility): 2 mg/mL (≈ 12.2 mM); solubility at 72 h ([1]; pure solvent 3F03F, 25 °C, solvent 3F03F, Tables S-1 to S-3, read-out: Solubility): 2.7 mg/mL (≈ 16.4 mM); solubility at 72 h ([1]; pure solvent 100, 25 °C, solvent 100, Tables S-13 to S-15, read-out: Experimental solubility): 142 mg/mL (≈ 863 mM); solubility at 72 h ([1]; pure solvent 101, 25 °C, solvent 101, 298 K, read-out: Solubility): 176 mg/mL (≈ 1070 mM); solubility at 72 h ([1]; pure solvent 101, 25 °C, solvent 101, Tables S-13 to S-15, read-out: Experimental solubility): 177 mg/mL (≈ 1080 mM); solubility at 72 h ([1]; pure solvent 303, 25 °C, solvent 303, 298 K, read-out: Solubility): 74.6 mg/mL (≈ 454 mM); solubility at 72 h [1, 23]: 91.1 mg/mL (≈ 555 mM); Solubility ([1]; solvent EG (ethylene glycol), 298 K): 102 mg/mL (≈ 621 mM); solubility at 72 h [2]: 203 mg/mL (≈ 1240 mM); solubility at 72 h ([2]; water): 0.4 mg/mL (≈ 2.44 mM); Increase of solubility in the water/101 mixture compared to the solubility in water ([2]; 72 h): 500 fold |
